Data set [1] in a line: Human liver microsomal CLint. Type of data set: in vitro ADME. The note with it: liver microsomes. For orientation: Microsomes from liver hold many membrane-bound enzymes, among them those of drug oxidation.
A short description of data set [2]: Mouse liver microsomal stability. Type of data set: in vitro ADME. As to conditions: male, CD-1, mouse, liver microsomes, pH 7.4.
Data set [3] can be described thus: Mouse hepatocyte stability. The note with it: male, CD-1, mouse, cryopreserved hepatocytes. Type of data set: in vitro ADME.
Data set [4] can be described thus: Human hepatocyte stability. Type of data set: in vitro ADME. The note with it: cryopreserved hepatocytes.
The next data set concerns A549-ACE2 cells. Put plainly: LDH cytotoxicity assay. The note with it: concentrations below 10 μM. Type of data set: cell-based, human.
The test system of another data set is AKT (phospho-Ser129). The experiment in a line: In vivo CSNK2 inhibition. More on the design: species or system CD-1 mice. As to conditions: 10 mg/kg i.p. b.i.d., 36 h, vs vehicle.
Another data set has as its target PHKG1 (Homo sapiens, UniProt Q16816). The experiment in a line: NanoBRET K192 panel. Type of data set: cell-based. As to conditions: read-out: NanoBRET K192 % occupancy at 10 μM, PHKG1. For orientation: In BRET a luciferase serves as donor, and the signal depends on an acceptor being close.
A further data set concerns EIF2S2 (phospho-Ser2). The experiment in a line: In vivo CSNK2 inhibition. The note with it: 10 mg/kg i.p. b.i.d., 36 h, vs vehicle. More on the design: species or system CD-1 mice.
A short description of the next data set: Plasma stability. Type of data set: in vitro ADME. The note with it: human plasma, 37 °C, 0 and 6 h.
In another data set the target is T1, HIPK4 (Homo sapiens, UniProt Q8NE63).
T1 sequence (Q8NE63 1-616): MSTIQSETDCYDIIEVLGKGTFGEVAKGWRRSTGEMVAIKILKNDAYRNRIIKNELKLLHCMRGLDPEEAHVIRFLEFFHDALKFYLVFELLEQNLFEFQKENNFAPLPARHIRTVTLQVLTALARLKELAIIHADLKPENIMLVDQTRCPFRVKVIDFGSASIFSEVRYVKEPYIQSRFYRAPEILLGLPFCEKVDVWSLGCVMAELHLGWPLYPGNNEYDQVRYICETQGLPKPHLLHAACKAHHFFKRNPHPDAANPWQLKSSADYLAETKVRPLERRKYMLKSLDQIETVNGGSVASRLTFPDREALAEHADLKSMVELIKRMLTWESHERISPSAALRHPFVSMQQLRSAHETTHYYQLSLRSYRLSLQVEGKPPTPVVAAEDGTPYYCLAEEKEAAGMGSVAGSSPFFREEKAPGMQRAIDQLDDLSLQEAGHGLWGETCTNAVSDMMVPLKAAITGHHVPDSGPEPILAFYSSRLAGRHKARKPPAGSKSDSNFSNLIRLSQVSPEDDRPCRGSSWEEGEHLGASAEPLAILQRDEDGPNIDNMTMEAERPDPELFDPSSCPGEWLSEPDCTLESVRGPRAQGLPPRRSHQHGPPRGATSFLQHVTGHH
The experiment in a line: NanoBRET K192 panel. Type of data set: cell-based. The note with it: read-out: NanoBRET K192 % occupancy at 10 μM, HIPK4.

For a further data set, the target named is DAPK2 (Homo sapiens, UniProt Q9UIK4). Put plainly: NanoBRET K192 panel. As to conditions: read-out: NanoBRET K192 % occupancy at 10 μM, DAPK2. Type of data set: cell-based.
Data set [5] has as its target T2, DYRK1A (Homo sapiens, UniProt Q13627). The experiment in a line: NanoBRET dose-response, off-target kinase. Type of data set: cell-based. As to conditions: poor assay window.
For data set [6], the system named is phosphorylation of CSNK2 substrate EIF2S2. The experiment in a line: Inhibition of EIF2S2 phosphorylation in vitro. The note with it: A549-ACE2 cells, 1 or 5 μM, 24 h. Type of data set: cell-based, human.
For a further data set, the target named is CLK4 (Homo sapiens, UniProt Q9HAZ1). Put plainly: NanoBRET K192 panel. Type of data set: cell-based. As to conditions: read-out: NanoBRET K192 % occupancy at 10 μM, CLK4.
Data set [7] deals with T2, DYRK1A. Put plainly: NanoBRET K192 panel. Type of data set: cell-based. As to conditions: read-out: NanoBRET K192 % occupancy at 10 μM, DYRK1A.
The subject of data set [8] is mouse hepatitis virus (MHV). The experiment in a line: MHV assay. Type of data set: cell-based.

The text below walks through data of PMC11284802 (Journal of Medicinal Chemistry, 2024).

PHKG1, sequence (Q16816 whole entry): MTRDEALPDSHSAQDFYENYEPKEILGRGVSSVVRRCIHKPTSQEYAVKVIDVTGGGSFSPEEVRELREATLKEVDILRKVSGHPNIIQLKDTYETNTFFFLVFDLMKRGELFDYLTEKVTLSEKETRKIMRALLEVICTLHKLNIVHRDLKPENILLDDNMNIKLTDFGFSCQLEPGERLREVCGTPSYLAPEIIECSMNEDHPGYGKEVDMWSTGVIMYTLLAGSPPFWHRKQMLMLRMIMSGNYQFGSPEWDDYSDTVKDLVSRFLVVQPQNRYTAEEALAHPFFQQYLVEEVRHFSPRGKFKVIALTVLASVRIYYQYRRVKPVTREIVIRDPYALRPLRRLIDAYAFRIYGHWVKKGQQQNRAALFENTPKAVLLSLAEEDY
DAPK2, sequence (Q9UIK4 whole entry): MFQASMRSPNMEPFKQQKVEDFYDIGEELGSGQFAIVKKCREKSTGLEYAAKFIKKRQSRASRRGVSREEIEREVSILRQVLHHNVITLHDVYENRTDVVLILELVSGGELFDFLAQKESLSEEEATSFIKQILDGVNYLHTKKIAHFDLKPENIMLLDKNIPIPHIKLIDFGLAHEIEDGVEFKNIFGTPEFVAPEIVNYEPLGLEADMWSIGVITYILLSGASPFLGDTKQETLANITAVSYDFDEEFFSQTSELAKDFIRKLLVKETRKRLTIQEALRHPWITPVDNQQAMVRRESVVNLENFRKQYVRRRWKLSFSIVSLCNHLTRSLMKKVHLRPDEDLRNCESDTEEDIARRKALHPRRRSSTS
CLK4, sequence (Q9HAZ1 whole entry): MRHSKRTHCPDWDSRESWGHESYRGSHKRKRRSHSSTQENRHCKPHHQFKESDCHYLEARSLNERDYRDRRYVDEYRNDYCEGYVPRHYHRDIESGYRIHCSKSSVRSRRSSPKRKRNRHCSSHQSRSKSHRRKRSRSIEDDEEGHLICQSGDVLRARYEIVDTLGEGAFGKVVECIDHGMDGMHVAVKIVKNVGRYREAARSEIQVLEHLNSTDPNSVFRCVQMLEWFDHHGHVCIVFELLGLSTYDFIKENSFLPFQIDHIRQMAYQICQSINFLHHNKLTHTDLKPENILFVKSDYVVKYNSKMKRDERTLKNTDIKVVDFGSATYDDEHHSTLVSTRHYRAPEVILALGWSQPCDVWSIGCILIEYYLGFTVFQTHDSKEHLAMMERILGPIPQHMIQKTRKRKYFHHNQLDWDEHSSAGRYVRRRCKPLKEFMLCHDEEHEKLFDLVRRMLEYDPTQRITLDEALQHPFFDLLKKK

One may read the CLint scaled as a measure of how fast metabolising enzymes remove a compound, apart from limits set by blood flow. A lower CLint scaled goes with slow turnover. In general, amount remaining refers to what is left of the initial amount, in per cent. Read a high amount remaining as greater stability. In data set [1], `CC(=O)Nc1cccc(Nc2cc(NC3CC3)n3ncc(C#N)c3n2)c1` [Compound 3, N-(3-((3-Cyano-7-(cyclopropylamino)pyrazolo[1,5-a]pyrimidin-5-yl)amino)phenyl)acetamide] showed a CLint scaled at 1 h of 1.5 L/h/kg. The molecule also showed a fraction remaining at 0.5 h, 5 μM in [2] of 22%. For the same molecule, the CLint scaled at 2 h, 1 µM amounted to 31.2 L/h/kg in data set [3] and 3.48 L/h/kg in data set [4].
In the case of `N#Cc1cnn2c(NC3CC3)cc(Nc3cccc(-n4cnnc4)c3)nc12` [Compound 14, 5-((3-(4H-1,2,4-Triazol-4-yl)phenyl)amino)-7-(cyclopropylamino)pyrazolo[1,5-a]pyrimidine-3-carbonitrile], the CLint scaled at 1 h in data set [1] is 0.456 L/h/kg. Besides, the fraction remaining at 0.5 h, 5 μM in data set [2] worked out at 74%. The CLint scaled at 2 h, 1 µM in data set [3] was 9.6 L/h/kg; in [4] it was 0.96 L/h/kg.
For the molecule `CCN(CCN)c1ccc(Nc2cc(NC3CC3)n3ncc(C#N)c3n2)cc1-n1cnnc1` [Compound 53, 5-((4-((2-Aminoethyl)(ethyl)amino)-3-(4H-1,2,4-triazol-4-yl)phenyl)amino)-7-(cyclopropylamino)pyrazolo[1,5-a]pyrimidine-3-carbonitrile], the “cell viability by LDH assay” value in the data set on A549-ACE2 cells is recorded as “No decrease in cell viability”. The “phosphorylation of Ser129 of AKT in mouse lung” value in the data set on AKT (phospho-Ser129) is reported as “no statistically significant reduction”. Also, the receptor occupancy at 10 µM at PHKG1, on HIPK4, at DAPK2, on CLK4 and at DYRK1A [7] was 50 to 75% throughout. For the same molecule, the “phosphorylation of Ser2 of EIF2S2 in mouse lung” value with EIF2S2 (phospho-Ser2) was “no statistically significant reduction”. Besides, the plasma stability result in the data set “Plasma stability” is “stable in plasma”. In addition, the “DYRK1A NanoBRET dose-response occupancy” value at DYRK1A [5] was “d Poor assay window observed but no occupancy observed up to 3 μM. n.d. = not determined”. Moreover, the “phosphorylation levels of CSNK2 substrate EIF2S2” value in data set [6] is “reduction in phosphorylation levels”.
As to `CN[C@H]1CCCN(c2ccc(Nc3cc(NC4CC4)n4ncc(C#N)c4n3)cc2-n2cnnc2)C1` [Compound 69, (S)-7-(Cyclopropylamino)-5-((4-(3-(methylamino)piperidin-1-yl)-3-(4H-1,2,4-triazol-4-yl)phenyl)amino)pyrazolo[1,5-a]pyrimidine-3-carbonitrile], the “fold decrease in MHV potency” value in data set [8] (relative to 68) is 3 fold.
For orientation: IC50 means the concentration that gives 50% inhibition. On to `O=c1nc(NO)ccn1[C@@H]1O[C@H](CO)[C@@H](O)[C@H]1O` [EIDD-1931, reference compound], for which, in [8] (read-out: MHV IC50, positive control of the assay), the IC50 stood at 1.2 µM.
